# In patent US20240382498A1, “NOVEL INHIBITOR OF HYPE-MEDIATED AMPYLATION” (Purdue Research Foundation, priority 2023, published 2024):
# Read-outs that look alike come from different tables or passages of the source.
# Target: T1, E234G HYPE (Homo sapiens, UniProt Q9BVA6, E234G)
# T1 construct: Δ102 (aa 103-458) HYPE constructs (WT, E234G, and E234G/H363A); His6-SUMO (cleaved yes); made in house; host or cells: E. coli BL21-DE3-RILP
# T1 sequence (Q9BVA6 103-458 E234G): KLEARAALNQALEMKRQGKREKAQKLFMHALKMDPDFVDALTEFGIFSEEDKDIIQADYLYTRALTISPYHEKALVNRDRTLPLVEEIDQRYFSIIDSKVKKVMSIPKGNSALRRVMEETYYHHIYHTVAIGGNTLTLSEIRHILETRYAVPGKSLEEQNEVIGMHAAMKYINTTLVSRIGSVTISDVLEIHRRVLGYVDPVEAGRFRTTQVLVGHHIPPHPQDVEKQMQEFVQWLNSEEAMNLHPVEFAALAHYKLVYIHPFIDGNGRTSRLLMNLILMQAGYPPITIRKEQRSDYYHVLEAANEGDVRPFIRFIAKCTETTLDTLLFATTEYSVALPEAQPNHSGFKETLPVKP
# Assay: Fluorescence polarization (FP) microplate autoAMPylation assay with Fl-ATP, E234G HYPE inhibitor HTS, cherrypick validation and concentration-response
# Type: biochemical
# Settings: for inhibition at 10 µM: 10 μM compound
# Protocol: Buffer optimization experiments were performed by incubating 0.4 μM of Δ102 HYPE enzyme with 25 nM Fl-ATP (final concentrations) in HTS buffer (50 mM HEPES (pH 7.5), 1 mM MgCl2, 0.1% Triton X-100, 1% DMSO) in the dark at room temperature for 10 min in 384-well black bottom, black wall microplates (20 μL reaction volume). Where specified, 1 mM MgCl2 was replaced with an equivalent concentration of MnCl2, or 0.1% Triton X-100 was replaced with 0.05% or 0.01% Trion X-100. Microplates were snap centrifuged at 1000 g for 10 sec. Microplates were loaded onto a BioTek BioStack NEO2 plate-reader and assessed for fluorescence polarization with 485/530 nm filters and a 55/50 gain adjustment.
# A Multidrop 384 reagent dispenser (ThermoFisher) was used to add 0.4 μM HYPE, then 25 nM Fl-ATP (final concentrations) to 384-well black/black microplates (20 μL reaction volume). Both enzyme and nucleotide were dissolved in HTS Buffer. AMPylation Reactions were incubated for 10 min at room temperature in the dark. Microplates were snap centrifuged at 1000 g for 10 sec, then transferred to BioTek BioStack NEO2 plate-reader. Reactions were assessed for fluorescence polarization with 485/530 nm filters and a 55/50 gain adjustment. Z′, S/B, and CV values were determined by fitting the data to Eq. 1, 2, and 3, respectively,
# An Echo Liquid Handler (Labcyte) was used to transfer 200 nL of DMSO-dissolved compounds via acoustic-coupled ejection from 10 mM source plates into 384-well black, flat-bottom, black-walled microplates, for a final compound concentration of 10 μM. Compounds were sourced from the following libraries: DIVERset (Chembridge), CNS-Set (Chembridge). The compounds went into columns 3-22 of each plate, while columns 1, 2, 23, and 24 were reserved for equivalent volume of 100% DMSO controls.
# A Multidrop 384 reagent dispenser was used to pipette 0.4 μM of WT HYPE (final concentration) dissolved in HTS Buffer into columns 1-22 of the activator plates, and columns 1 and 2 of the inhibitor plates as positive controls. 0.4 μM of E234G HYPE was similarly added to columns 3-24 of the inhibitor plates, and columns 23 and 24 of the […]. Enzymes were then incubated with either compounds or DMSO for 10 min at room temperature.
# A Multidrop 384 reagent dispenser was used to pipette 25 nM of Fl-ATP (final concentration) into all wells of each plate, giving a final reaction volume of 20 μL. Plates were then incubated for 10 min at room temperature in the dark, followed by a snap centrifugation at 1000 g for 10 sec. Microplates were loaded onto BioTek BioStack stacker and read in succession for fluorescence polarization with 485/530 nm filters and a 55/50 gain adjustment. Fluorescence polarization values were converted to fractional activation (FA) or fractional inhibition FI) values according to Eq. (3) or (4), respectively,
# [formula] [formula] • where μp and μn are the means of the positive (E234G HYPE) and negative (WT HYPE) controls, respectively; and x is the measured value of fluorescence polarization.
# Microplate “cherrypicking” validations were performed as described above.
# A Multidrop 384 reagent dispenser was used to pipette 0.4 μM of WT or E234G HYPE (final concentrations) dissolved in HTS Buffer into designated microplate wells. 10 μM of DMSO-dissolved compounds (final concentrations) or equivalent volume of 100% DMSO were manually pipetted into their specified wells. Enzymes were incubated with compounds or DMSO for 10 min at room temperature. Reagent dispenser was then used to pipette 25 nM of Fl-ATP (final concentration) into each well, followed by a 10 min incubation at room temperature in the dark. Plates were snap centrifuged at 1000 g for 10 sec, then transferred to BioTek BioStack NEO2 plate-reader. Reactions were assessed for fluorescence polarization with 485/530 nm filters and a 55/50 gain adjustment. EC50 and IC50 values were determined by fitting polarization values to Eq. (5) and (6), respectively, […]
compound,measurement,setting,value
c1cn(-c2ccc(-c3nnc(-c4ccoc4)o3)cn2)cn1 [Compound I2.10],AMPylation at in vitro saturation point of inhibition,50 μM,zero percent AMPylation
same,IC50 (concentration-response of E234G HYPE inhibition),"FP microplate, inhibitors 0 to 200 μM",low micromolar
same,inhibition at 10 µM,"cherrypick validation, same FP assay, read-out: % Inh. Cherry-pick",29.7%
same,inhibition at 10 µM,"initial HTS, normalized to WT and E234G HYPE DMSO controls, read-out: % Inh. HTS",24.5%
same,Mean % Inh.,mean of HTS and cherrypick,27.1%
